Assay results as given in US20140288052A1, “SUBSTITUTED BICYCLIC AZA-HETEROCYCLES AND ANALOGUES AS SIRTUIN MODULATORS” (GlaxoSmithKline, LLC, priority 2011, published 2014).

Experiments:
SIRT1 [1] = biological target: T1, SIRT1 (Homo sapiens, UniProt Q96EB6); assay: TAMRA based mass spectrometry assay of SIRT1 deacetylase activation; assay type: biochemical; conditions: TAMRA peptide substrate; for TAMRA EC1.5 (μM): concentration that results in 150% activation of SIRT1; for TAMRA % Fold Act: percent maximum fold activation relative to control (100%)
T1 sequence (Q96EB6 1-747): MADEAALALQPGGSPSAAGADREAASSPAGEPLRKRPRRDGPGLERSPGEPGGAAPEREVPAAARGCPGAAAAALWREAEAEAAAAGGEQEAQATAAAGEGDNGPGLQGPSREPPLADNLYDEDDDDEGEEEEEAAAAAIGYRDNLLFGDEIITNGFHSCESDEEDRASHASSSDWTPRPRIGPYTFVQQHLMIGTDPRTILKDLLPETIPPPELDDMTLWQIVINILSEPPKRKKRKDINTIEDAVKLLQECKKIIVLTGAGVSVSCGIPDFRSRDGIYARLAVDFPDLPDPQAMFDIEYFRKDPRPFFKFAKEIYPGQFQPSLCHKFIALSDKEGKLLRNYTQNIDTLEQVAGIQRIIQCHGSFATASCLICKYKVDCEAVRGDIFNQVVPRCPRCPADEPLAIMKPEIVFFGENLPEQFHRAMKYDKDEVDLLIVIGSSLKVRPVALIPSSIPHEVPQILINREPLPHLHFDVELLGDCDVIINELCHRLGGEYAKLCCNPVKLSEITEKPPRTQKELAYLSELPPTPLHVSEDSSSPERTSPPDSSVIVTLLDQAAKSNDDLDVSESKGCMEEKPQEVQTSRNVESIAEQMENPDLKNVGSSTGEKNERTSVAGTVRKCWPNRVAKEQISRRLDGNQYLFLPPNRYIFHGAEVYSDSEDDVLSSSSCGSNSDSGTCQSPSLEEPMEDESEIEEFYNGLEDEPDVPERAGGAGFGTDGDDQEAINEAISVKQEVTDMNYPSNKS
In short: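 E. coli-expressed N-terminal His-tagged human SIRT1 (10 nM) was incubated 25 min at 25 °C, pH 8 Tris-acetate buffer, with 0.5 μM TAMRA-labelled p53-derived acetyl-peptide, 120 μM NAD+ and varying compound; formic acid stop, mass-spec quantitation of deacetylated product vs DMSO controls. EC1.5 = concentration giving 150% activation.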

SIRT1 [2] = biological target: T1, SIRT1; assay: Trp mass spectrometry assay of SIRT1 deacetylase activation; assay type: biochemical; conditions: Trp peptide substrate; for TRP EC1.5 (μM): concentration that results in 150% activation of SIRT1; for TRP % Fold Act: percent maximum fold activation relative to control (100%)
In short: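 His-tagged human SIRT1 (E. coli-expressed, 10 nM) was incubated with 0.5 μM Ac-RHKK(Ac)W-NH2 peptide and 120 μM βNAD+ for 25 min at 25 °C in HEPES pH 7.5, 1500 mM NaCl, with varying compound; formic acid quench. OAADPR or deacetylated peptide was quantified by mass spectrometry against DMSO control. EC1.5 (150% activation) and percent maximum activation were derived.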

Compound	TAMRA EC1.5 (μM) (SIRT1 [1])	TAMRA % Fold Act (SIRT1 [1])	TRP EC1.5 (μM) (SIRT1 [2])	TRP % Fold Act (SIRT1 [2])
O=C(Nc1nccs1)c1cc(N2CCOCC2)nn2cc(-c3ccccc3C(F)(F)F)nc12 [Compound 42]	B (EC1.5 1−25 μM)	B (Fold Activation<350%)	C (EC1.5>25 μM)	B (Fold Activation<350%)
O=C(Nc1ccncc1)c1cc(N2CCOCC2)nn2cc(-c3ccccc3C(F)(F)F)nc12 [Compound 46]	A (EC1.5<1 μM)	A (Fold activation≧350%)	C (EC1.5>25 μM)	B (Fold Activation<350%)
O=C(Nc1ccnc2cc(-c3ccccc3C(F)(F)F)nn12)c1ncc(F)cc1F [Compound 116]	A (EC1.5<1 μM)	A (Fold activation≧350%)	C (EC1.5>25 μM)	B (Fold Activation<350%)
O=C(Nc1ccnc2cc(-c3cccc(C(F)(F)F)c3)nn12)c1cccc(N2CCC2)n1 [Compound 98]	C (EC1.5>25 μM)	B (Fold Activation<350%)	C (EC1.5>25 μM)	B (Fold Activation<350%)
O=C(Nc1ccncc1)c1cc(N2CCOCC2)nn2cc(-c3cccc(Cl)c3)nc12 [Compound 54]	C (EC1.5>25 μM)	B (Fold Activation<350%)	C (EC1.5>25 μM)	B (Fold Activation<350%)
Cc1cnc(NC(=O)c2ccnn3cc(-c4cccc(C(F)(F)F)c4)nc23)s1 [Compound 18]	C (EC1.5>25 μM)	B (Fold Activation<350%)	C (EC1.5>25 μM)	B (Fold Activation<350%)
O=C(Nc1cccc(N2CCOCC2)n1)c1ccnn2cc(-c3ccccc3C(F)(F)F)nc12 [Compound 16]	A (EC1.5<1 μM)	A (Fold activation≧350%)	C (EC1.5>25 μM)	B (Fold Activation<350%)
O=C(Nc1ccnc2cc(-c3ccccc3C(F)(F)F)nn12)c1ncccc1F [Compound 113]	A (EC1.5<1 μM)	A (Fold activation≧350%)	B (EC1.5 1−25 μM)	B (Fold Activation<350%)
Cc1cnc(NC(=O)c2ccnc3cc(-c4cccc(C(F)(F)F)c4)nn23)s1 [Compound 88]	B (EC1.5 1−25 μM)	B (Fold Activation<350%)	C (EC1.5>25 μM)	B (Fold Activation<350%)
O=C(Nc1ccncc1)c1ccnc2cc(-c3ccccc3C(F)(F)F)nn12 [Compound 77]	B (EC1.5 1−25 μM)	A (Fold activation≧350%)	B (EC1.5 1−25 μM)	B (Fold Activation<350%)
Cc1cnc(NC(=O)c2cc(N3CCOCC3)nn3cc(-c4ccccc4C(F)(F)F)nc23)s1 [Compound 43]	A (EC1.5<1 μM)	B (Fold Activation<350%)	C (EC1.5>25 μM)	B (Fold Activation<350%)
Cc1csc(NC(=O)c2ccnc3cc(-c4ccccc4C(F)(F)F)nn23)n1 [Compound 81]	B (EC1.5 1−25 μM)	B (Fold Activation<350%)	B (EC1.5 1−25 μM)	B (Fold Activation<350%)
O=C(Nc1ccnc2cc(-c3cccc(C(F)(F)F)c3)nn12)c1ccccn1 [Compound 70]	C (EC1.5>25 μM)	B (Fold Activation<350%)	C (EC1.5>25 μM)	B (Fold Activation<350%)
O=C(Nc1ccnc2cc(-c3ccccc3C(F)(F)F)nn12)c1ncccn1 [Compound 60]	A (EC1.5<1 μM)	A (Fold activation≧350%)	B (EC1.5 1−25 μM)	B (Fold Activation<350%)
O=C(Nc1cccnc1)c1cc(N2CCOCC2)nn2cc(-c3cccc(Cl)c3)nc12 [Compound 33]	C (EC1.5>25 μM)	B (Fold Activation<350%)	C (EC1.5>25 μM)	B (Fold Activation<350%)
COc1cccc(C(=O)Nc2ccnc3cc(-c4ccccc4C(F)(F)F)nn23)n1 [Compound 111]	A (EC1.5<1 μM)	A (Fold activation≧350%)	C (EC1.5>25 μM)	B (Fold Activation<350%)
O=C(Nc1ncccn1)c1ccnc2cc(-c3cccc(C(F)(F)F)c3)nn12 [Compound 101]	C (EC1.5>25 μM)	B (Fold Activation<350%)	B (EC1.5 1−25 μM)	B (Fold Activation<350%)
O=C(Nc1cccnc1)c1cc(N2CCOCC2)nn2cc(-c3cccc(F)c3)nc12 [Compound 28]	C (EC1.5>25 μM)	B (Fold Activation<350%)	C (EC1.5>25 μM)	B (Fold Activation<350%)
O=C(Nc1nccs1)c1cc(N2CCOCC2)nn2cc(-c3ccccc3F)nc12 [Compound 37]	C (EC1.5>25 μM)	B (Fold Activation<350%)	C (EC1.5>25 μM)	B (Fold Activation<350%)
Cc1cc(C)nc(C(=O)Nc2ccnc3cc(-c4ccccc4C(F)(F)F)nn23)c1 [Compound 106]	A (EC1.5<1 μM)	A (Fold activation≧350%)	C (EC1.5>25 μM)	B (Fold Activation<350%)
O=C(Nc1ccnc2cc(-c3ccccc3C(F)(F)F)nn12)c1ccn[nH]1 [Compound 110]	B (EC1.5 1−25 μM)	A (Fold activation≧350%)	B (EC1.5 1−25 μM)	B (Fold Activation<350%)
O=C(Nc1ccncc1)c1cc(N2CCOCC2)nn2cc(-c3ccccc3F)nc12 [Compound 41]	C (EC1.5>25 μM)	B (Fold Activation<350%)	C (EC1.5>25 μM)	B (Fold Activation<350%)
O=C(Nc1cccnc1)c1ccnc2cc(-c3cccc(C(F)(F)F)c3)nn12 [Compound 85]	C (EC1.5>25 μM)	B (Fold Activation<350%)	C (EC1.5>25 μM)	B (Fold Activation<350%)
O=C(Nc1ccnc2cc(-c3cccc(C(F)(F)F)c3)nn12)c1ncccn1 [Compound 71]	B (EC1.5 1−25 μM)	B (Fold Activation<350%)	C (EC1.5>25 μM)	B (Fold Activation<350%)
O=C(Nc1ccnc2cc(-c3ccccc3C(F)(F)F)nn12)c1cnc(O)cn1 [Compound 117]	A (EC1.5<1 μM)	A (Fold activation≧350%)	C (EC1.5>25 μM)	B (Fold Activation<350%)
O=C(Nc1ccccn1)c1cc(N2CCOCC2)nn2cc(-c3cccc(C(F)(F)F)c3)nc12 [Compound 49]	C (EC1.5>25 μM)	B (Fold Activation<350%)	C (EC1.5>25 μM)	B (Fold Activation<350%)
O=C(Nc1ccncn1)c1ccnc2cc(-c3ccccc3C(F)(F)F)nn12 [Compound 78]	A (EC1.5<1 μM)	A (Fold activation≧350%)	B (EC1.5 1−25 μM)	B (Fold Activation<350%)
O=C(Nc1ccccn1)c1cc(N2CCOCC2)nn2cc(-c3ccccc3Cl)nc12 [Compound 36]	C (EC1.5>25 μM)	B (Fold Activation<350%)	C (EC1.5>25 μM)	B (Fold Activation<350%)
O=C(Nc1ncccn1)c1ccnc2cc(-c3ccccc3C(F)(F)F)nn12 [Compound 100]	B (EC1.5 1−25 μM)	A (Fold activation≧350%)	B (EC1.5 1−25 μM)	B (Fold Activation<350%)
